Here are results for twelve molecules from ChEMBL document CHEMBL1150435, “Inhibition of antennal esterases of the egyptian armyworm Spodoptera littoralis by trifluoromethyl ketones” (Bioorg Med Chem Lett, 1993).

One test concerns Spodoptera littoralis. Nature of the test: Tested for its ability to inhibit antennal esterases of Spodoptera littoralis without pre-incubation at 63 uM concentration.
Test [1] is described as follows: Tested for its ability to inhibit antennal esterases of Spodoptera littoralis without pre-incubation.
Test [2] in a line: Compound was tested for competitive inhibition of antennal esterases of Spodoptera littoralis.
Test [3] can be described thus: Tested for the ability to inhibit antennal esterases of Spodoptera littoralis with pre-incubation.

Turning to `O=C(CCc1ccccc1)C(F)(F)F`, in the test on Spodoptera littoralis, the inhibition (usually the change of the read-out against control, counted positive when it falls) was determined as 43%. In turn, `O=C(c1cccc2ccccc12)C(F)(F)F` had an inhibition in the test with Spodoptera littoralis of 38%. In the case of `O=C(c1ccc2ccccc2c1)C(F)(F)F`, the figures for the half-inhibitory concentration (IC50) in test [1] and in test [3] were 7.9 µM and 11.4 µM, respectively. Moreover, the Ki – broadly, a measure of affinity in units of concentration, obtained from inhibition or displacement – in test [2] was found to be 249 µM. In the test on Spodoptera littoralis, `CCCCCCCCCCCCCCCCCC(=O)C(F)(F)F` came in with an inhibition of 44%.

`O=C(c1ccccc1)C(F)(F)F`: the inhibition with Spodoptera littoralis stood at 31%. It took 40.7 µM to reach half-maximal inhibition in test [3] (IC50). Regarding `CCCCCCCCCCCCCC(=O)C(F)(F)F`, the IC50 (in general, the point on the concentration scale where inhibition reaches its midpoint) stood at 11 µM in test [1] and 4.4 µM in test [3].

Turning to `O=C(Cc1ccccc1)C(F)(F)F`, the inhibition in the test with Spodoptera littoralis came out at 36%. In the test with Spodoptera littoralis, `CCCCCCCCCCCCCCCCC(=O)C(F)(F)F` yielded an inhibition of 50%.

For the molecule `CCCCCCCCCCC(=O)C(F)(F)F`, the 50% inhibitory concentration (IC50) in test [3] came out at 19.3 µM. In the case of `CCCCCCCCCCCCC(=O)C(F)(F)F`, the half-inhibitory concentration (IC50) in test [1] came out at 10.6 µM; in test [3] it was 1.16 µM. Moreover, the inhibitory constant (Ki) in test [2] came out at 29.8 µM.

For `CCCCCCCCSCC(=O)C(F)(F)F`, the half-inhibitory concentration (IC50) in test [1] came to 3.7 µM; in test [3], 0.55 µM. The same molecule returned a Ki in test [2] of 25.1 µM. Take `CCCCCCCCCCCCCCC(=O)C(F)(F)F`: the concentration for half-maximal inhibition (IC50) in test [3] was 18.4 µM.
